A word on the pIC50: it is the negative decadic logarithm of the IC50, by convention in mol/L.

pIC50: −log10 of the molar value.

For 58 molecules, IC50 results are on record in ChEMBL document CHEMBL5052843, “Inhibitors of apol1 and methods of using same” (2020).

For one assay, the target named is Apolipoprotein L1 (Homo sapiens, UniProt O14791). As to the kind of experiment: Inhibition of APOL1 G1 variant in human HEK293-T-REx cells measured by Thallium assay. Type of assay: cell-based.
Assay [1] deals with Trypanosoma brucei brucei. The assay can be described thus: Antitrypanosomal activity against Trypanosoma brucei brucei assessed as trypanosome lysis using recombinant APOL1 protein G1 variant and measured by Alamar blue based fluorescene assay. Type of assay: functional, organism-based.

In the case of `O=C(CCc1c(-c2ccccc2)[nH]c2c(F)cccc12)N[C@@H]1C(=O)NC[C@H]1O`, the negative logarithm of the IC50 (pIC50) (against Apolipoprotein L1; in assay [1]) was more than 6.60 each time.

Regarding `O=C(CCc1c(-c2ccccc2)[nH]c2cc(F)c(F)cc12)N[C@@H]1C(=O)NC[C@H]1O`, the pIC50 (against Apolipoprotein L1; in assay [1]) was more than 6.60 each time.

In the case of `COc1ccc(-c2[nH]c3ccccc3c2CCC(=O)N[C@@H]2C(=O)NC[C@H]2O)cc1`, the pIC50 (on Apolipoprotein L1; in assay [1]) was more than 6.60 throughout.

With `N#Cc1cc(F)cc2c(CCC(=O)N[C@@H]3C(=O)NC[C@H]3O)c(-c3ccc(F)cc3)[nH]c12`, the pIC50 (against Apolipoprotein L1; in assay [1]) was more than 6.60 in each case.

Regarding `O=C(CCc1c(-c2cc(F)cc(F)c2)[nH]c2c(F)cc(F)cc12)N[C@@H]1C(=O)NC[C@H]1O`, the pIC50 against Apolipoprotein L1 is more than 6.60; in assay [1], 6.60.

As to `O=C(CCc1c(-c2ccccc2)[nH]c2c(F)c(F)c(F)cc12)N[C@@H]1C(=O)NC[C@H]1O`, the negative-log IC50 (pIC50) (against Apolipoprotein L1; in assay [1]) was more than 6.60 in each case.

For `Cc1cc(-c2[nH]c3ccccc3c2CCC(=O)N[C@@H]2C(=O)NC[C@H]2O)ccc1F`, the pIC50 (on Apolipoprotein L1; in assay [1]) was more than 6.60 in each case.

As to `O=C(CCc1c(-c2ccc(F)cc2)[nH]c2ccccc12)N[C@@H]1C(=O)NC[C@H]1O`, the pIC50 (against Apolipoprotein L1; in assay [1]) was more than 6.60 in each case.

For the molecule `O=C(CCc1c(-c2ccc(OC(F)(F)F)cc2)[nH]c2ccccc12)N[C@@H]1C(=O)NC[C@H]1O`, the pIC50 (at Apolipoprotein L1; in assay [1]) was more than 6.60 throughout.

Regarding `O=C(CCc1c(-c2ccc(F)cc2)[nH]c2c(F)c(F)ccc12)N[C@@H]1C(=O)NC[C@H]1O`, the pIC50 (against Apolipoprotein L1; in assay [1]) was more than 6.60 each time.

In the case of `O=C1NC[C@@H](O)[C@@H]1NC(=O)C(F)(F)Cc1c(-c2ccc(F)cc2)[nH]c2c(F)cc(F)cc12`, the pIC50 (against Apolipoprotein L1; in assay [1]) was more than 6.60 each time.

As for `O=C(CCc1c(-c2ccc(C(F)(F)F)cc2)[nH]c2ccccc12)N[C@@H]1C(=O)NC[C@H]1O`, the pIC50 (on Apolipoprotein L1; in assay [1]) was more than 6.60 each time.

Regarding `O=C(CCc1c(-c2ccccc2)[nH]c2cccc(F)c12)N[C@@H]1C(=O)NC[C@H]1O`, the pIC50 at Apolipoprotein L1 was more than 6.60; in assay [1] it was 6.60.

In the case of `O=C(CCc1c(-c2ccccc2)[nH]c2c(Br)cccc12)N[C@@H]1C(=O)NC[C@H]1O`, the pIC50 (at Apolipoprotein L1; in assay [1]) was more than 6.60 throughout.

For the molecule `Cc1ccc(-c2[nH]c3ccccc3c2CCC(=O)N[C@@H]2C(=O)NC[C@H]2O)cc1F`, the pIC50 (against Apolipoprotein L1; in assay [1]) was more than 6.60 in each case.

Take `O=C(CCc1c(-c2ccc(F)cc2)[nH]c2ccc(C(F)(F)F)cc12)N[C@@H]1C(=O)NC[C@H]1O`: the pIC50 (against Apolipoprotein L1; in assay [1]) was more than 6.60 throughout.

On to `O=C(CCc1c(-c2ccc(F)cc2)[nH]c2c(F)cccc12)N[C@H]1CCNC1=O`, for which the pIC50 (against Apolipoprotein L1; in assay [1]) was more than 6.60 throughout.

Consider `COc1cc(F)cc2c(CCC(=O)N[C@@H]3C(=O)NC[C@H]3O)c(-c3ccc(F)cc3)[nH]c12`, for which the pIC50 (on Apolipoprotein L1; in assay [1]) was more than 6.60 throughout.

`O=C(CCc1c(-c2ccc(F)cc2)[nH]c2c(Cl)cccc12)N[C@@H]1C(=O)NC[C@H]1O`: the pIC50 (at Apolipoprotein L1; in assay [1]) was more than 6.60 each time.

As to `O=C(CCc1c(-c2ccccc2)[nH]c2c(C(F)(F)F)cccc12)N[C@@H]1C(=O)NC[C@H]1O`, the pIC50 on Apolipoprotein L1 was 6.60; in assay [1] it was less than 6.00.

`Cc1ccc(-c2[nH]c3ccccc3c2CCC(=O)N[C@@H]2C(=O)NC[C@H]2O)c(F)c1`: the pIC50 (against Apolipoprotein L1; in assay [1]) was more than 6.60 in each case.

`Cc1c(F)c(F)cc2c(CCC(=O)N[C@@H]3C(=O)NC[C@H]3O)c(-c3ccccc3)[nH]c12`: the pIC50 (at Apolipoprotein L1; in assay [1]) was more than 6.60 throughout.

As for `O=C(CCc1c(-c2ccc(F)cc2)[nH]c2ccc(OCc3ccccc3)cc12)N[C@H]1CCNC1=O`, the pIC50 (against Apolipoprotein L1; in assay [1]) was 6.60 each time.

Regarding `CN(C(=O)CCc1c(-c2ccc(F)cc2)[nH]c2ccc(F)cc12)C1CCNC1=O` (stereo unspecified), the pIC50 (against Apolipoprotein L1; in assay [1]) was 6.60 each time.

With `O=C(CCc1c(-c2ccccc2)[nH]c2ccc(F)cc12)N[C@@H]1C(=O)NC[C@H]1O`, the negative logarithm of the IC50 (pIC50) (at Apolipoprotein L1; in assay [1]) was more than 6.60 in each case.

For `Cc1ccc2[nH]c(-c3ccc(Br)cc3)c(CCC(=O)N[C@H]3CCNC3=O)c2c1`, the pIC50 (against Apolipoprotein L1; in assay [1]) was more than 6.60 in each case.

With `O=C(CCc1c(-c2cccc(F)c2)[nH]c2c(F)cc(F)cc12)N[C@@H]1C(=O)NC[C@H]1O`, the pIC50 (against Apolipoprotein L1; in assay [1]) was more than 6.60 throughout.

Turning to `[2H]C([2H])(C(=O)N[C@@H]1C(=O)NC[C@H]1O)C([2H])([2H])c1c(-c2ccc(F)cc2)[nH]c2c(F)cc(F)cc12`, the pIC50 (at Apolipoprotein L1; in assay [1]) was more than 6.60 in each case.

As for `O=C(CCc1c(-c2ccccc2)[nH]c2c(F)c(F)ccc12)N[C@@H]1C(=O)NC[C@H]1O`, the pIC50 (on Apolipoprotein L1; in assay [1]) was more than 6.60 in each case.

As to `O=C(CCc1c(-c2ccccc2)[nH]c2cc(F)cc(F)c12)N[C@@H]1C(=O)NC[C@H]1O`, the pIC50 (against Apolipoprotein L1; in assay [1]) was more than 6.60 each time.

As to `N#Cc1ccc(-c2[nH]c3ccccc3c2CCC(=O)N[C@@H]2C(=O)NC[C@H]2O)cc1`, the negative logarithm of the IC50 (pIC50) (at Apolipoprotein L1; in assay [1]) was more than 6.60 each time.

For `O=C(CCc1c(-c2ccc(F)cc2)[nH]c2c(Cl)cccc12)N[C@H]1CCNC1=O`, the pIC50 (against Apolipoprotein L1; in assay [1]) was more than 6.60 throughout.

Take `O=C(CCc1c(-c2ccc(Cl)cc2)[nH]c2ccccc12)N[C@@H]1C(=O)NC[C@H]1O`: the pIC50 (against Apolipoprotein L1; in assay [1]) was more than 6.60 each time.

With `O=C(CCc1c(-c2cc(F)cc(F)c2)[nH]c2ccccc12)N[C@@H]1C(=O)NC[C@H]1O`, the pIC50 (on Apolipoprotein L1; in assay [1]) was 6.60 each time.

In the case of `O=C(CCc1c(-c2ccc(F)cc2)[nH]c2ccc(F)cc12)N[C@@H]1CCNC1=O`, the pIC50 (at Apolipoprotein L1; in assay [1]) was 6.60 each time.

With `Cc1ccc(-c2[nH]c3ccccc3c2CCC(=O)N[C@@H]2C(=O)NC[C@H]2O)cc1`, the pIC50 (at Apolipoprotein L1; in assay [1]) was more than 6.60 throughout.

For `O=C(CCc1c(-c2ccc(F)c(F)c2)[nH]c2ccccc12)N[C@@H]1C(=O)NC[C@H]1O`, the pIC50 (against Apolipoprotein L1; in assay [1]) was more than 6.60 each time.

As for `O=C(CCc1c(-c2ccc(F)cc2)[nH]c2ccc(F)cc12)N[C@H]1CCNC1=O`, the pIC50 (on Apolipoprotein L1; in assay [1]) was more than 6.60 in each case.

With `O=C(CCc1c(-c2ccc(F)c(F)c2)[nH]c2c(F)cc(F)cc12)N[C@@H]1C(=O)NC[C@H]1O`, the pIC50 (at Apolipoprotein L1; in assay [1]) was more than 6.60 each time.

As for `O=C(CCc1c(-c2ccc(F)cc2)[nH]c2c(F)cccc12)N[C@@H]1C(=O)NC[C@H]1O`, the pIC50 (against Apolipoprotein L1; in assay [1]) was more than 6.60 each time.

As for `O=C(CCc1c(-c2ccc(F)cc2)[nH]c2c(F)cc(C(F)(F)F)cc12)N[C@@H]1C(=O)NC[C@H]1O`, the pIC50 (against Apolipoprotein L1; in assay [1]) was more than 6.60 throughout.

With `O=C(CCc1c(-c2ccc(F)cc2)[nH]c2c(Cl)cc(F)cc12)N[C@@H]1C(=O)NC[C@H]1O`, the negative-log IC50 (pIC50) (at Apolipoprotein L1; in assay [1]) was more than 6.60 in each case.

Regarding `O=C(CCc1c(-c2ccccc2)[nH]c2ccc(Cl)cc12)N[C@@H]1C(=O)NC[C@H]1O`, the pIC50 (at Apolipoprotein L1; in assay [1]) was more than 6.60 each time.

Take `O=C(CCc1c(-c2ccc(F)cc2)[nH]c2ccc(F)cc12)NC1CCNC1=O` (stereo unspecified): the pIC50 (at Apolipoprotein L1; in assay [1]) was more than 6.60 in each case.

Take `O=C(CCc1c(-c2ccc(C(F)F)cc2)[nH]c2ccccc12)N[C@@H]1C(=O)NC[C@H]1O`: the pIC50 (at Apolipoprotein L1; in assay [1]) was more than 6.60 in each case.

Turning to `O=C(CCc1c(-c2ccccc2)[nH]c2ccccc12)N[C@@H]1C(=O)NC[C@H]1O`, the pIC50 (on Apolipoprotein L1; in assay [1]) was more than 6.60 each time.

For `O=C(CCc1c(-c2ccccc2)[nH]c2ccc(F)cc12)N[C@H]1CCNC1=O`, the pIC50 (against Apolipoprotein L1; in assay [1]) was more than 6.60 throughout.

For `Cc1cc(F)cc2c(CCC(=O)N[C@@H]3C(=O)NC[C@H]3O)c(-c3ccc(F)cc3)[nH]c12`, the pIC50 (against Apolipoprotein L1; in assay [1]) was more than 6.60 each time.

Regarding `O=C(CCc1c(-c2ccc(OC(F)F)cc2)[nH]c2c(F)cc(F)cc12)N[C@@H]1C(=O)NC[C@H]1O`, the pIC50 (on Apolipoprotein L1; in assay [1]) was more than 6.60 each time.

Take `[2H]C(C(=O)N[C@@H]1C(=O)NC[C@H]1O)C([2H])c1c(-c2ccc(F)cc2)[nH]c2c(F)cc(F)cc12` (stereo partly specified): the negative-log IC50 (pIC50) (against Apolipoprotein L1; in assay [1]) was more than 6.60 each time.

On to `O=C(CCc1c(-c2ccc(F)cc2)[nH]c2c(F)ccc(F)c12)N[C@H]1CCNC1=O`, for which the pIC50 (against Apolipoprotein L1; in assay [1]) was less than 6.00 throughout.

For `O=C(CCc1c(-c2ccc(F)cc2)[nH]c2ccc(O)cc12)N[C@H]1CCNC1=O`, the negative logarithm of the IC50 (pIC50) (against Apolipoprotein L1; in assay [1]) was less than 6.00 each time.

`Cc1c(F)c(F)cc2c(CCC(=O)N[C@@H]3C(=O)NC[C@H]3O)c(-c3ccc(F)cc3)[nH]c12`: the pIC50 (at Apolipoprotein L1; in assay [1]) was more than 6.60 each time.

Turning to `O=C(CCc1c(-c2ccc(Cl)c(F)c2)[nH]c2ccccc12)N[C@@H]1C(=O)NC[C@H]1O`, the negative-log IC50 (pIC50) (against Apolipoprotein L1; in assay [1]) was more than 6.60 throughout.

With `O=C(CCc1c(-c2ccccc2)[nH]c2cc(F)ccc12)N[C@@H]1C(=O)NC[C@H]1O`, the pIC50 (against Apolipoprotein L1; in assay [1]) was more than 6.60 each time.

Consider `O=C(CCc1c(-c2ccc(F)cc2)[nH]c2c(OC(F)F)cc(F)cc12)N[C@@H]1C(=O)NC[C@H]1O`, for which the pIC50 on Apolipoprotein L1 was more than 6.60; in assay [1] it was 6.60.

In the case of `O=C(CCc1c(-c2ccc(F)cc2)[nH]c2ccc(F)cc12)N[C@@H]1C(=O)NC[C@H]1O`, the pIC50 (at Apolipoprotein L1; in assay [1]) was more than 6.60 throughout.

For `O=C(CCc1c(-c2ccc(F)cc2)[nH]c2c(F)cc(F)cc12)N[C@@H]1C(=O)NC[C@H]1O` [INAXAPLIN], the pIC50 (on Apolipoprotein L1; in assay [1]) was more than 6.60 in each case.
